Source: US10183936B2, “Hepatitis B core protein allosteric modulators” (priority 2014, dated 2019)

Columns and labels:
[1] = tested on: HBV viral production in AD38 cells; assay: Viral load production in AD38 cells by quantitative PCR of the HBV core sequence in supernatant; type: cell-based; conditions: 10 μM compound, 6 days at 37° C., viral load in supernatant compared against DMSO control wells; for activity at 10 µM: Hepatitis B virus, 144 h, read-out: AD38 Viral Load (CpAM/DMSO %) at 10 μM
How it was run: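 AD38 cells seeded at 50,000/well, treated 6 days at 37° C with compound added as 10× solution in 10% DMSO. HBV core sequence in clarified supernatant quantified by TaqMan qPCR against known standards; viral load compared with DMSO control wells.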

AD38 cells = assay: Viability of AD38 cells (Promega CellTiter-Glo) at the end of compound treatment; type: cell-based; conditions: 10 μM compound, 6 days, luminescence normalized against DMSO control wells (controls being 100%)
How it was run: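 AD38 cells seeded at 50,000/well received compound from a 10× solution in 10% DMSO and were incubated 6 days at 37° C. Viability was then read by CellTiter-Glo luminescence in tetracycline-free medium with 2% FBS and 1% DMSO, normalized to DMSO control wells (100%) and reported as percent viability.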

`O=C(Nc1cc(F)c(F)c(F)c1)c1ccc2c(c1)NC(=O)c1cc(F)ccc1S2` [Compound 1324] was tested, and the activity at 10 µM [1] was 10% and the “AD38 Viability Normalized Result (CPAM/DMSO %) at 10 μM” value (AD38 cells) was 24%.
In the case of `O=C(Nc1ccc2ncsc2c1)c1ccc2c(c1)NC(=O)c1cc(F)ccc1S2` [Compound 1325], the activity at 10 µM [1] is reported as 26% and the “AD38 Viability Normalized Result (CPAM/DMSO %) at 10 μM” value (AD38 cells) is reported as 90%.
In the case of `O=C(Nc1ccc(-c2ccccc2)cc1)c1ccc2c(c1)NC(=O)c1cc(F)ccc1S2` [Compound 1326], the activity at 10 µM [1] is reported as 23% and the “AD38 Viability Normalized Result (CPAM/DMSO %) at 10 μM” value (AD38 cells) is reported as 95%.
With `O=C(Nc1cncnc1)c1ccc2c(c1)NC(=O)c1cc(F)ccc1S2` [Compound 1328] the activity at 10 µM [1] was 54% and the “AD38 Viability Normalized Result (CPAM/DMSO %) at 10 μM” value (AD38 cells) was 105%.
In the case of `O=C(Nc1nccs1)c1ccc2c(c1)NC(=O)c1cc(F)ccc1S2` [Compound 1329], the activity at 10 µM [1] is reported as 62% and the “AD38 Viability Normalized Result (CPAM/DMSO %) at 10 μM” value (AD38 cells) is reported as 109%.
With `O=C(Nc1ccncc1)c1ccc2c(c1)NC(=O)c1cc(F)ccc1S2` [Compound 1330] the activity at 10 µM [1] was 41% and the “AD38 Viability Normalized Result (CPAM/DMSO %) at 10 μM” value (AD38 cells) was 109%.
For `O=C(Nc1ccc2ncoc2c1)c1ccc2c(c1)NC(=O)c1cc(F)ccc1S2` [Compound 1331], the activity at 10 µM [1] was 43% and the “AD38 Viability Normalized Result (CPAM/DMSO %) at 10 μM” value (AD38 cells) was 88%.
`O=C(Nc1nc2ccc(F)cc2s1)c1ccc2c(c1)NC(=O)c1cc(F)ccc1S2` [Compound 1332] was tested, and the activity at 10 µM [1] was 70% and the “AD38 Viability Normalized Result (CPAM/DMSO %) at 10 μM” value (AD38 cells) was 103%.
With `O=C(Nc1cccc(-c2ccccc2)c1)c1ccc2c(c1)NC(=O)c1cc(F)ccc1S2` [Compound 1333] the activity at 10 µM [1] was 20% and the “AD38 Viability Normalized Result (CPAM/DMSO %) at 10 μM” value (AD38 cells) was 73%.
With `O=C(Nc1ccc(Cl)cc1F)c1ccc2c(c1)NC(=O)c1cc(F)ccc1S2` [Compound 1334] the activity at 10 µM [1] was 33% and the “AD38 Viability Normalized Result (CPAM/DMSO %) at 10 μM” value (AD38 cells) was 83%.
In the case of `O=C(Nc1cncs1)c1ccc2c(c1)NC(=O)c1cc(F)ccc1S2` [Compound 1335], the activity at 10 µM [1] is reported as 87% and the “AD38 Viability Normalized Result (CPAM/DMSO %) at 10 μM” value (AD38 cells) is reported as 104%.
`O=C(Nc1ccc(F)cn1)c1ccc2c(c1)NC(=O)c1cc(F)ccc1S2` [Compound 1336] was tested, and the activity at 10 µM [1] was 70% and the “AD38 Viability Normalized Result (CPAM/DMSO %) at 10 μM” value (AD38 cells) was 90%.
With `O=C(Nc1cncc(F)c1)c1ccc2c(c1)NC(=O)c1cc(F)ccc1S2` [Compound 1337] the activity at 10 µM [1] was 77% and the “AD38 Viability Normalized Result (CPAM/DMSO %) at 10 μM” value (AD38 cells) was 91%.
For `O=C(Nc1ccc(Cl)cn1)c1ccc2c(c1)NC(=O)c1cc(F)ccc1S2` [Compound 1338], the activity at 10 µM [1] was 70% and the “AD38 Viability Normalized Result (CPAM/DMSO %) at 10 μM” value (AD38 cells) was 118%.
For `O=C(Nc1nc2ccccc2s1)c1ccc2c(c1)NC(=O)c1cc(F)ccc1S2` [Compound 1339], the activity at 10 µM [1] was 113% and the “AD38 Viability Normalized Result (CPAM/DMSO %) at 10 μM” value (AD38 cells) was 70%.
In the case of `O=C(Nc1nc2ccc(Cl)cc2s1)c1ccc2c(c1)NC(=O)c1cc(F)ccc1S2` [Compound 1340], the activity at 10 µM [1] is reported as 64% and the “AD38 Viability Normalized Result (CPAM/DMSO %) at 10 μM” value (AD38 cells) is reported as 116%.
In the case of `COC(=O)C(Cc1cncnc1)NC(=O)c1ccc2c(c1)NC(=O)c1cc(F)ccc1S2` (centres unmarked) [Compound 1342, Methyl 2-(2-fluoro-11-oxo-10, 11-dihydrodibenzo [b,f] [1,4]thiazepine-8-carboxamido)-3-(pyrimidin-5-yl) propanoate], the “AD38 Viral Load (CpAM/DMSO %) at 10 μM” value [1] is reported as 113% and the “AD38 Viability Normalized Result (CPAM/DMSO %) at 10 μM” value (AD38 cells) is reported as 95%.
`O=C(NCCc1cnc(-c2ccccc2)nc1)c1ccc2c(c1)NC(=O)c1cc(F)ccc1S2` [Compound 1343] was tested, and the activity at 10 µM [1] was 8% and the “AD38 Viability Normalized Result (CPAM/DMSO %) at 10 μM” value (AD38 cells) was 91%.
`O=C(Nc1ccncn1)c1ccc2c(c1)NC(=O)c1cc(F)ccc1S2` [Compound 1344] was tested, and the activity at 10 µM [1] was 96% and the “AD38 Viability Normalized Result (CPAM/DMSO %) at 10 μM” value (AD38 cells) was 102%.
For `O=C(Nc1cncc(Cl)c1)c1ccc2c(c1)NC(=O)c1cc(F)ccc1S2` [Compound 1345], the activity at 10 µM [1] was 115% and the “AD38 Viability Normalized Result (CPAM/DMSO %) at 10 μM” value (AD38 cells) was 93%.
In the case of `CC(C)(C)OC(=O)C(Cc1cncnc1)NC(=O)c1ccc2c(c1)NC(=O)c1cc(F)ccc1S2` (centres unmarked) [Compound 1346, Tert-Butyl 2-(2-fluoro-11-oxo-10, 11-dihydrodibenzo [b,f] [1,4]thiazepine-8-carboxamido)-3-(pyrimidin-5-yl) propanoate], the “AD38 Viral Load (CpAM/DMSO %) at 10 μM” value [1] is reported as 105% and the “AD38 Viability Normalized Result (CPAM/DMSO %) at 10 μM” value (AD38 cells) is reported as 97%.
`O=C(NCc1cncnc1)c1ccc2c(c1)NC(=O)c1ccc(F)cc1S2` [Compound 1347] was tested, and the activity at 10 µM [1] was 3% and the “AD38 Viability Normalized Result (CPAM/DMSO %) at 10 μM” value (AD38 cells) was 94%.
With `O=C(NCCc1ccccn1)c1ccc2c(c1)NC(=O)c1ccc(F)cc1S2` [Compound 1348] the activity at 10 µM [1] was 0% and the “AD38 Viability Normalized Result (CPAM/DMSO %) at 10 μM” value (AD38 cells) was 107%.
With `O=C(NCc1cnco1)c1ccc2c(c1)NC(=O)c1ccc(F)cc1S2` [Compound 1349] the activity at 10 µM [1] was 12% and the “AD38 Viability Normalized Result (CPAM/DMSO %) at 10 μM” value (AD38 cells) was 102%.
With `O=C(Nc1ncco1)c1ccc2c(c1)NC(=O)c1cc(F)ccc1S2` [Compound 1353] the activity at 10 µM [1] was 50% and the “AD38 Viability Normalized Result (CPAM/DMSO %) at 10 μM” value (AD38 cells) was 97%.
`O=C(Nc1nc2ccccc2o1)c1ccc2c(c1)NC(=O)c1cc(F)ccc1S2` [Compound 1354] was tested, and the activity at 10 µM [1] was 98% and the “AD38 Viability Normalized Result (CPAM/DMSO %) at 10 μM” value (AD38 cells) was 70%.
With `O=C(NCc1cncs1)c1ccc2c(c1)NC(=O)c1ccc(F)cc1S2` [Compound 1356] the activity at 10 µM [1] was 3% and the “AD38 Viability Normalized Result (CPAM/DMSO %) at 10 μM” value (AD38 cells) was 101%.
In the case of `O=C1Nc2cc(CNCCc3ccccc3)ccc2Sc2ccccc21` [Compound 1357, 8-((phenethylamino)methyl) dibenzo [b,f] [1,4] thiazepin-11(10H)-one], the activity at 10 µM [1] is reported as 39% and the “AD38 Viability Normalized Result (CPAM/DMSO %) at 10 μM” value (AD38 cells) is reported as 115%.
In the case of `O=C(Nc1cccc(-c2ccccc2)c1)c1ccc2c(c1)NC(=O)c1ccc(F)cc1S2` [Compound 1358], the activity at 10 µM [1] is reported as 15% and the “AD38 Viability Normalized Result (CPAM/DMSO %) at 10 μM” value (AD38 cells) is reported as 72%.
With `O=C(NC(CO)Cc1cncnc1)c1ccc2c(c1)NC(=O)c1cc(F)ccc1S2` (centres unmarked) [Compound 1361, 2-fluoro-N-(1-hydroxy-3-(pyrimidin-5-yl)propan-2-yl)-11-oxo-10, 11-dihydrodibenzo [b,f] [1,4] thiazepine-8-carboxamide] the activity at 10 µM [1] was 79% and the “AD38 Viability Normalized Result (CPAM/DMSO %) at 10 μM” value (AD38 cells) was 113%.
In the case of `O=C(NCCc1cncnc1)c1ccc2c(c1)NC(=O)c1ccc(F)cc1S2` [Compound 1362], the activity at 10 µM [1] is reported as 19% and the “AD38 Viability Normalized Result (CPAM/DMSO %) at 10 μM” value (AD38 cells) is reported as 98%.
For `O=C(NCc1cccnc1)c1ccc2c(c1)NC(=O)c1cc(F)ccc1S2` [Compound 1364], the activity at 10 µM [1] was 1% and the “AD38 Viability Normalized Result (CPAM/DMSO %) at 10 μM” value (AD38 cells) was 102%.
`O=C(NCc1cccnc1)c1ccc2c(c1)NC(=O)c1ccc(F)cc1S2` [Compound 1365] was tested, and the activity at 10 µM [1] was 2% and the “AD38 Viability Normalized Result (CPAM/DMSO %) at 10 μM” value (AD38 cells) was 105%.
In the case of `O=C(Nc1ccncc1)c1ccc2c(c1)NC(=O)c1ccc(F)cc1S2` [Compound 1366], the activity at 10 µM [1] is reported as 12% and the “AD38 Viability Normalized Result (CPAM/DMSO %) at 10 μM” value (AD38 cells) is reported as 93%.
In the case of `CC(=O)N(CCc1ccccc1)Cc1ccc2c(c1)NC(=O)c1ccccc1S2` [Compound 1367, N-((11-oxo-10, 11-dihydrodibenzo [b,f] [1,4]thiazepin-8-yl)methyl)-N-phenethyl acetamide], the activity at 10 µM [1] is reported as 33% and the “AD38 Viability Normalized Result (CPAM/DMSO %) at 10 μM” value (AD38 cells) is reported as 88%.
With `O=C(NCCc1ccc(-c2ccccc2)cc1)c1ccc2c(c1)NC(=O)c1cc(F)ccc1S2` [Compound 1370] the activity at 10 µM [1] was 5% and the “AD38 Viability Normalized Result (CPAM/DMSO %) at 10 μM” value (AD38 cells) was 94%.
In the case of `O=C(NCCc1ccc(-c2ccccc2)cc1)c1ccc2c(c1)NC(=O)c1ccc(F)cc1S2` [Compound 1371], the activity at 10 µM [1] is reported as 6% and the “AD38 Viability Normalized Result (CPAM/DMSO %) at 10 μM” value (AD38 cells) is reported as 94%.
`O=C(NCc1cncnc1)c1ccc2c(c1)NC(=O)c1ccccc1[S+]2[O-]` (centres unmarked) [Compound 1373] was tested, and the activity at 10 µM [1] was 10% and the “AD38 Viability Normalized Result (CPAM/DMSO %) at 10 μM” value (AD38 cells) was 100%.
In the case of `O=C(NCCc1ccccn1)c1ccc2c(c1)NC(=O)c1ccccc1[S+]2[O-]` (centres unmarked) [Compound 1374], the activity at 10 µM [1] is reported as 1% and the “AD38 Viability Normalized Result (CPAM/DMSO %) at 10 μM” value (AD38 cells) is reported as 98%.
For `O=C(Nc1cccc(-c2ccccc2)c1)c1ccc2c(c1)NC(=O)c1ccccc1[S+]2[O-]` (centres unmarked) [Compound 1375], the activity at 10 µM [1] was 11% and the “AD38 Viability Normalized Result (CPAM/DMSO %) at 10 μM” value (AD38 cells) was 89%.
With `O=C(NCCc1cccnc1)c1ccc2c(c1)NC(=O)c1cc(F)ccc1S2` [Compound 1376] the activity at 10 µM [1] was 3% and the “AD38 Viability Normalized Result (CPAM/DMSO %) at 10 μM” value (AD38 cells) was 63%.
In the case of `O=C(NCCc1cccnc1)c1ccc2c(c1)NC(=O)c1ccc(F)cc1S2` [Compound 1377], the activity at 10 µM [1] is reported as 5% and the “AD38 Viability Normalized Result (CPAM/DMSO %) at 10 μM” value (AD38 cells) is reported as 65%.
With `O=C(NCc1cnco1)c1ccc2c(c1)NC(=O)c1ccccc1[S+]2[O-]` (centres unmarked) [Compound 1381] the activity at 10 µM [1] was 40% and the “AD38 Viability Normalized Result (CPAM/DMSO %) at 10 μM” value (AD38 cells) was 93%.
